# Measured values reported in patent publication US20100009970A1, “COMPOSITIONS AND METHODS FOR TREATMENT OF VIRAL DISEASES” (Combinatorx (Singapore) Pte. Ltd., priority 2008, published 2010).
# Where two headings read alike, the source gives them in different places.
# Key:
# in vitro = conditions: human
# [1] = system: Huh7 cells expressing a subgenomic RNA replicon of Con1 (genotype 1b) sequence origin; experiment: microbe, parasite or virus in culture; conditions: Hepatitis C virus; for Emax: Huh-7, read-out: Max Effect@CC30 (inhibition)
# [2] = Huh-7, read-out: IC50 (uM) [SG]
Compound,CC50 (in vitro; CC50 (uM)) [µM],CC50 (in vitro; CC50 (uM) [SG]) [µM],IC50 ([1]; Huh-7) [µM],"IC50 [1, 2] [µM]",Emax [1] [%],IC90 ([1]; Huh-7) [µM]
"CSc1ccc(Oc2ccc(S(N)(=O)=O)cc2CO)cc1C [Compound 47, 3-(hydroxymethyl)-4-(3-methyl-4-(methylthio)phenoxy)benzenesulfonamide]",> 50,> 50,18.1,18.1,63.5,–
"CSc1ccc(Oc2ccc(S(=O)(=O)Nc3ccccc3)cc2CN(C)C)cc1C [Compound 49, 3-((dimethylamino)methyl)-4-(3-methyl-4-(methylthio)phenoxy)-N-phenylbenzenesulfonamide]",–,10.8,–,6.53,15.3,–
"CNCc1cc([N+](=O)[O-])ccc1Oc1ccc(SC)c(C)c1 [Compound 50, N-methyl-1-(2-(3-methyl-4-(methylthio)phenoxy)-5-nitrophenyl)methanamine]",–,26.1,–,6.04,90,11.4
"CSc1ccc(Oc2ccc(N)cc2CN(C)C)cc1C [Compound 53, 3-((dimethylamino)methyl)-4-(3-methyl-4-(methylthio)phenoxy)aniline]",–,> 50,–,22.6,91.5,45.7
"CSc1ccc(Oc2ccc([N+](=O)[O-])cc2CN(C)C)cc1C [Compound 54, N,N-dimethyl-1-(2-(3-methyl-4-(methylthio)phenoxy)-5-nitrophenyl)methanamine]",–,> 50,–,6.18,97.9,7.07
"CN(C)Cc1ccccc1Oc1ccc(Br)cc1 [Compound 55, (2-(4-bromophenoxy)phenyl)-N,N-dimethylmethanamine]",–,> 50,–,29.9,77.2,–
"CSc1ccc(Oc2ccc(S(=O)(=O)Nc3ccc(Br)cc3)cc2CN(C)C)cc1C [Compound 57, N-(4-bromophenyl)-3-((dimethylamino)methyl)-4-(3-methyl-4-(methylthio)phenoxy)benzenesulfonamide]",–,8.17,–,11,–,–
"CSc1ccc(Oc2ccc(S(N)(=O)=O)cc2N)cc1C [Compound 58, 3-amino-4-(3-methyl-4-(methylthio)phenoxy)benzenesulfonamide]",–,> 50,–,15.3,–,–
"COc1ccc(NS(=O)(=O)c2ccc(Oc3ccc(SC)c(C)c3)c(CN(C)C)c2)cc1 [Compound 59, 3-((dimethylamino)methyl)-N-(4-methoxyphenyl)-4-(3-methyl-4-(methylthio)phenoxy)benzenesulfonamide]",–,8.32,–,6.39,–,–
"CSc1ccc(Oc2cc(Br)ccc2CN(C)C)cc1C [Compound 60, 1-(4-bromo-2-(3-methyl-4-(methylthio)phenoxy)phenyl)-N,N-dimethylmethanamine]",–,28.7,–,12.6,–,–
"Cc1cc(Oc2ccc(S(N)(=O)=O)cc2CN(C)C)ccc1Br [Compound 61, 4-(4-bromo-3-methylphenoxy)-3-((dimethylamino)methyl)benzenesulfonamide]",–,> 50,–,12.1,–,–
"CSc1ccc(Oc2ccc(S(N)(=O)=O)cc2CN2CCN(C)CC2)cc1C [Compound 63, 4-(3-methyl-4-(methylthio)phenoxy)-3-((4-methylpiperazine-1-yl)methyl)benzenesulfonamide]",–,> 50,–,4.82,–,10.5
"CSc1ccc(Oc2cc(C#N)ccc2CN(C)C)cc1C [Compound 64, 4-((dimethylamino)methyl)-3-(3-methyl-4-(methylthio)phenoxy)benzonitrile]",–,> 50,–,22.5,–,–
"Cc1cccc(Oc2ccc(S(N)(=O)=O)cc2CC(C)C)c1 [Compound 65, 3-isobutyl-4-(m-tolyloxy)benzenesulfonamide]",–,> 50,–,30.7,–,50
"CSc1ccc(Oc2ccc(S(N)(=O)=O)cc2CN2CC[C@H](O)C2)cc1C [Compound 66, (S)-3-((3-hydroxypyrrolidin-1-yl)methyl)-4-(3-methyl-4-(methylthio)phenoxy)benzenesulfonamide]",–,> 50,–,2.43,–,6.78
"CSc1ccc(Oc2ccc(S(N)(=O)=O)cc2CN2CC[C@@H](O)C2)cc1C [Compound 67, (R)-3-((3-hydroxypyrrolidin-1-yl)methyl)-4-(3-methyl-4-(methylthio)phenoxy)benzenesulfonamide]",–,> 50,–,2.26,–,7.4
"CSc1ccc(Oc2ccc(S(N)(=O)=O)cc2CNC[C@@H](C)O)cc1C [Compound 68, (R)-3-((2-hydroxypropylamino)methyl)-4-(3-methyl-4-(methylthio)phenoxy)benzenesulfonamide]",–,> 50,–,4.34,–,15.3
